Source: patent US10059674B2, “Design, synthesis, and biological evaluation of 1-methyl-1, 4-dihyrdoindeno[1,2-C]pyrazole analogues as potential anticaner agents targeting tubulin colchicine binding site” (ACT PHARMA CO., LTD., priority 2016, dated 2018)
Like-named read-outs stand apart in the source and are kept apart here.

What was measured:
in vitro = details: mouse, liver microsomes, pH 7.47
P-gp = test: MDCK cell permeability test; details: dog, MDCK
[1] = In vivo pharmacokinetic test, drug concentration in blood plasma by LC-MS/MS; design: species or system SD rats; details: for Drug concentration in blood plasma / concentration at 0.25 h / concentration at 0.5 h / concentration at 1 h / concentration at 8 h / concentration at 24 h / concentration at 0.08 h / concentration at 2 h / concentration at 4 h: SD rats; for Drug concentration in blood plasma / concentration at 24 h: 24 h; for concentration at 0.25 h / concentration at 0.5 h / concentration at 1 h / concentration at 8 h / concentration at 24 h / concentration at 0.08 h / concentration at 2 h / concentration at 4 h / AUC(0-t) / Cmax / AUC(0-inf) / clearance / MRT inf / Vd / Vd/F: SD; for concentration at 0.25 h / concentration at 0.5 h / concentration at 1 h / concentration at 8 h / concentration at 24 h / concentration at 0.08 h / concentration at 2 h / concentration at 4 h / AUC(0-t) / Cmax / AUC(0-inf) / clearance / MRT inf / Vd / Vd/F / Tmax: rat, plasma; for HL_Lambda_z / Cl—F—pred / F / AUC(0-t) / Cmax / AUC(0-inf) / clearance / MRT inf / Vd / Vd/F / Tmax: male SD rats; for AUC(0-inf): read-out: AUCINF—pred; for clearance: read-out: Cl—pred (converted); for MRT inf: read-out: MRTINF—pred; for Vd: read-out: Vz—pred; for Vd/F: read-out: Vz—F—pred
Description: 2. Test animal: SD rats, which are 284-304 g before the test, and bought from Shanghai Xipuer-Bikai laboratory animal Co., Ltd. with production license No. SCXK (Hu) 2013-0016, and laboratory animal certificate Nos. 2008001658223 and 2008001658296.
2.85 mg of compound LL-01 is weighed, and then put into a glass bottle; 0.687 mL of DMSO is added into the glass bottle, and ultrasonic treatment is carried out for 2 min; next, 2.062 mL of Solutol HS 15 is added thereto, and ultrasonic treatment is carried out for 4 min; and then 10.995 mL of PBS is added thereto, and ultrasonic treatment is carried out for 8 min after eddying. This test substance is numbered 20160324-RW-01, 12.74 mg of compound LL-01 is weighed, and then put into a glass bottle; 0.614 mL of DMSO is added into the glass bottle, and ultrasonic treatment is carried out for 2 min; next, 1.843 mL of Solutol HS 15 is added thereto, and ultrasonic treatment is carried out for 4 min; and then 9.830 mL of PBS is added thereto, and ultrasonic treatment is carried out for 8 min after eddying. This test substance is numbered 20160324-RW-02,
The dosage of intravenous administration is 1 mg/kg, while the dosage of oral administration is 10 mg/kg. A night of fasting is required before administration, and feeding should be carried out 4 hours later after administration.
Blood is collected (about 150-200 uL) at every time points of 0.083 (only vein), 0.25, 0.5, 1, 2, 4, 8, and 24 hours after administration through orbital venous plexus puncture into EDTA-K2 (20%, and 2 μL) anticoagulant tubes, respectively; the blood samples are centrifuged 8 min at 6000 rpm in 1 h (placed on wet ice before being centrifuged), and the supernatant, namely blood plasma is put into −20° C. low-temperature conservation for LC-MS/MS analysis later.
The content of compound LL-01 in SD rat blood plasma is detected by use of LC-MS/MS method.
Computer program Microsoft Office Excel 2007 (Microsoft, USA) is used for data processing, and drawing. A statistical moment method of WinNolin 6.4 processing software is used to calculate pharmacokinetic parameters.

[2] = po, 10 mg/kg, oral 10 mg/kg, Mean
[3] = po, 10 mg/kg, oral 10 mg/kg, animal 201M
[4] = po, 10 mg/kg, oral 10 mg/kg, animal 202M
[5] = po, 10 mg/kg, oral 10 mg/kg, animal 203M
[6] = single intravenous 1 mg/kg, animal 101M
[7] = single oral 10 mg/kg, animal 201M
[8] = single oral 10 mg/kg, animal 202M
[9] = single oral 10 mg/kg, animal 203M
[10] = male, iv, 1 mg/kg, intravenous 1 mg/kg, Mean
[11] = male, iv, 1 mg/kg, intravenous 1 mg/kg, animal 101M
[12] = male, iv, 1 mg/kg, intravenous 1 mg/kg, animal 102M
[13] = male, iv, 1 mg/kg, intravenous 1 mg/kg, animal 103M
[14] = male, iv, 1 mg/kg, single intravenous 1 mg/kg, Mean
[15] = male, iv, 1 mg/kg, single intravenous 1 mg/kg, animal 101M
[16] = male, iv, 1 mg/kg, single intravenous 1 mg/kg, animal 102M
[17] = male, iv, 1 mg/kg, single intravenous 1 mg/kg, animal 103M
[18] = male, po, 10 mg/kg, oral 10 mg/kg, Mean
[19] = male, po, 10 mg/kg, oral 10 mg/kg, animal 201M
[20] = male, po, 10 mg/kg, oral 10 mg/kg, animal 202M
[21] = male, po, 10 mg/kg, oral 10 mg/kg, animal 203M
[22] = male, po, 10 mg/kg, single oral 10 mg/kg, Mean
[23] = male, po, 10 mg/kg, single oral 10 mg/kg, animal 201M
[24] = male, po, 10 mg/kg, single oral 10 mg/kg, animal 202M
[25] = male, po, 10 mg/kg, single oral 10 mg/kg, animal 203M

CCOc1cccc(Nc2nn(C)c3c2Cc2cc(OCC)c(OCC(N)=O)cc2-3)c1 [LL-01]
half-life at 1 µM (in vitro): 0.922 h
microsomal CLint at 1 µM (in vitro): 25 µL/min/mg
efflux ratio at 90 min (P-gp): 1.2
Drug concentration in blood plasma ([1]; intravenous 1 mg/kg, animal 101M): BLQ
Drug concentration in blood plasma ([1]; intravenous 1 mg/kg, animal 102M): BLQ
Drug concentration in blood plasma ([1]; intravenous 1 mg/kg, animal 103M): BLQ
concentration at 0.25 h [1, 2]: 280 ng/mL
concentration at 0.25 h [1, 3]: 159 ng/mL
concentration at 0.25 h [1, 4]: 466 ng/mL
concentration at 0.25 h [1, 5]: 216 ng/mL
concentration at 0.5 h [1, 2]: 558 ng/mL
concentration at 0.5 h [1, 3]: 374 ng/mL
concentration at 0.5 h [1, 4]: 959 ng/mL
concentration at 0.5 h [1, 5]: 339 ng/mL
concentration at 1 h [1, 2]: 917 ng/mL
concentration at 1 h [1, 3]: 869 ng/mL
concentration at 1 h [1, 4]: 1100 ng/mL
concentration at 1 h [1, 5]: 778 ng/mL
concentration at 8 h [1, 2]: 604 ng/mL
concentration at 8 h [1, 4]: 916 ng/mL
concentration at 8 h [1, 5]: 446 ng/mL
concentration at 24 h [1, 2]: 26.9 ng/mL
concentration at 24 h [1, 3]: 46.8 ng/mL
concentration at 24 h [1, 4]: 17.4 ng/mL
concentration at 24 h [1, 5]: 16.6 ng/mL
HL_Lambda_z ([1]; single intravenous 1 mg/kg, Mean): 1.00 h
HL_Lambda_z [1, 6]: 1.06 h
HL_Lambda_z ([1]; single intravenous 1 mg/kg, animal 102M): 1.00 h
HL_Lambda_z ([1]; single intravenous 1 mg/kg, animal 103M): 0.94 h
Cl—F—pred ([1]; single oral 10 mg/kg, Mean): 14.3 mL/min/kg
F ([1]; single oral 10 mg/kg, Mean): 41.02%
HL_Lambda_z ([1]; single oral 10 mg/kg, Mean): 3.60 h
Cl—F—pred [1, 7]: 15.2 mL/min/kg
F [1, 7]: 35.12%
HL_Lambda_z [1, 7]: 4.35 h
Cl—F—pred [1, 8]: 9.33 mL/min/kg
F [1, 8]: 58.28%
HL_Lambda_z [1, 8]: 2.95 h
Cl—F—pred [1, 9]: 18.3 mL/min/kg
F [1, 9]: 29.66%
HL_Lambda_z [1, 9]: 3.50 h
concentration at 0.08 h [1, 10]: 2600 ng/mL
concentration at 0.08 h [1, 11]: 2720 ng/mL
concentration at 0.08 h [1, 12]: 2400 ng/mL
concentration at 0.08 h [1, 13]: 2690 ng/mL
concentration at 0.25 h [1, 10]: 1950 ng/mL
concentration at 0.25 h [1, 11]: 2020 ng/mL
concentration at 0.25 h [1, 12]: 1920 ng/mL
concentration at 0.25 h [1, 13]: 1910 ng/mL
concentration at 0.5 h [1, 10]: 1630 ng/mL
concentration at 0.5 h [1, 11]: 1760 ng/mL
concentration at 0.5 h [1, 12]: 1390 ng/mL
concentration at 0.5 h [1, 13]: 1720 ng/mL
concentration at 1 h [1, 10]: 884 ng/mL
concentration at 1 h [1, 11]: 876 ng/mL
concentration at 1 h [1, 12]: 842 ng/mL
concentration at 1 h [1, 13]: 934 ng/mL
concentration at 2 h [1, 10]: 428 ng/mL
concentration at 2 h [1, 11]: 398 ng/mL
concentration at 2 h [1, 12]: 372 ng/mL
concentration at 2 h [1, 13]: 512 ng/mL
concentration at 4 h [1, 10]: 82.5 ng/mL
concentration at 4 h [1, 11]: 87.6 ng/mL
concentration at 4 h [1, 12]: 67.1 ng/mL
concentration at 4 h [1, 13]: 92.8 ng/mL
concentration at 8 h [1, 10]: 7.8 ng/mL
concentration at 8 h [1, 11]: 8.6 ng/mL
concentration at 8 h [1, 12]: 9.1 ng/mL
concentration at 8 h [1, 13]: 5.6 ng/mL
AUC(0-t) [1, 14]: 3030 ng·h/mL
Cmax [1, 14]: 2600 ng/mL
AUC(0-inf) [1, 14]: 3040 ng·h/mL
clearance [1, 14]: 5.5 mL/min/kg
MRT inf [1, 14]: 1.18 h
Vd [1, 14]: 0.48 L/kg
AUC(0-t) [1, 15]: 3090 ng·h/mL
Cmax [1, 15]: 2720 ng/mL
AUC(0-inf) [1, 15]: 3100 ng·h/mL
clearance [1, 15]: 5.33 mL/min/kg
MRT inf [1, 15]: 1.17 h
Vd [1, 15]: 0.49 L/kg
AUC(0-t) [1, 16]: 2740 ng·h/mL
Cmax [1, 16]: 2400 ng/mL
AUC(0-inf) [1, 16]: 2750 ng·h/mL
clearance [1, 16]: 6 mL/min/kg
MRT inf [1, 16]: 1.16 h
Vd [1, 16]: 0.53 L/kg
AUC(0-t) [1, 17]: 3270 ng·h/mL
Cmax [1, 17]: 2690 ng/mL
AUC(0-inf) [1, 17]: 3280 ng·h/mL
clearance [1, 17]: 5 mL/min/kg
MRT inf [1, 17]: 1.21 h
Vd [1, 17]: 0.41 L/kg
concentration at 2 h [1, 18]: 920 ng/mL
concentration at 2 h [1, 19]: 675 ng/mL
concentration at 2 h [1, 20]: 1280 ng/mL
concentration at 2 h [1, 21]: 801 ng/mL
concentration at 4 h [1, 18]: 1280 ng/mL
concentration at 4 h [1, 19]: 1310 ng/mL
concentration at 4 h [1, 20]: 1720 ng/mL
concentration at 4 h [1, 21]: 814 ng/mL
concentration at 8 h [1, 19]: 451 ng/mL
AUC(0-t) [1, 22]: 12400 ng·h/mL
Cmax [1, 22]: 1280 ng/mL
AUC(0-inf) [1, 22]: 12600 ng·h/mL
MRT inf [1, 22]: 6.14 h
Vd/F [1, 22]: 4.57 L/kg
AUC(0-t) [1, 23]: 10700 ng·h/mL
Cmax [1, 23]: 1310 ng/mL
AUC(0-inf) [1, 23]: 10900 ng·h/mL
MRT inf [1, 23]: 6.58 h
Vd/F [1, 23]: 5.74 L/kg
AUC(0-t) [1, 24]: 17700 ng·h/mL
Cmax [1, 24]: 1720 ng/mL
AUC(0-inf) [1, 24]: 17800 ng·h/mL
MRT inf [1, 24]: 5.87 h
Vd/F [1, 24]: 2.4 L/kg
AUC(0-t) [1, 25]: 9000 ng·h/mL
Cmax [1, 25]: 814 ng/mL
AUC(0-inf) [1, 25]: 9080 ng·h/mL
MRT inf [1, 25]: 5.96 h
Vd/F [1, 25]: 5.57 L/kg
Tmax [1, 6]: 0.08 h
Tmax [1, 7]: 4 h
